Experimental data taken from ChEMBL document CHEMBL5052842, “Pharmaceutical compounds and their use as inhibitors of ubiquitin specific protease 19 (usp19)” (2020).

target: T1, Ubiquitin carboxyl-terminal hydrolase 19 (Homo sapiens, UniProt O94966); assay: Inhibition of C-terminal His6-tagged recombinant human USP19 using iso-peptide ubiquitin-Lys-TAMRA as substrate incubated for 30 mins and measured after 90 mins by fluorescent polarization assay
T1 sequence (O94966 whole entry): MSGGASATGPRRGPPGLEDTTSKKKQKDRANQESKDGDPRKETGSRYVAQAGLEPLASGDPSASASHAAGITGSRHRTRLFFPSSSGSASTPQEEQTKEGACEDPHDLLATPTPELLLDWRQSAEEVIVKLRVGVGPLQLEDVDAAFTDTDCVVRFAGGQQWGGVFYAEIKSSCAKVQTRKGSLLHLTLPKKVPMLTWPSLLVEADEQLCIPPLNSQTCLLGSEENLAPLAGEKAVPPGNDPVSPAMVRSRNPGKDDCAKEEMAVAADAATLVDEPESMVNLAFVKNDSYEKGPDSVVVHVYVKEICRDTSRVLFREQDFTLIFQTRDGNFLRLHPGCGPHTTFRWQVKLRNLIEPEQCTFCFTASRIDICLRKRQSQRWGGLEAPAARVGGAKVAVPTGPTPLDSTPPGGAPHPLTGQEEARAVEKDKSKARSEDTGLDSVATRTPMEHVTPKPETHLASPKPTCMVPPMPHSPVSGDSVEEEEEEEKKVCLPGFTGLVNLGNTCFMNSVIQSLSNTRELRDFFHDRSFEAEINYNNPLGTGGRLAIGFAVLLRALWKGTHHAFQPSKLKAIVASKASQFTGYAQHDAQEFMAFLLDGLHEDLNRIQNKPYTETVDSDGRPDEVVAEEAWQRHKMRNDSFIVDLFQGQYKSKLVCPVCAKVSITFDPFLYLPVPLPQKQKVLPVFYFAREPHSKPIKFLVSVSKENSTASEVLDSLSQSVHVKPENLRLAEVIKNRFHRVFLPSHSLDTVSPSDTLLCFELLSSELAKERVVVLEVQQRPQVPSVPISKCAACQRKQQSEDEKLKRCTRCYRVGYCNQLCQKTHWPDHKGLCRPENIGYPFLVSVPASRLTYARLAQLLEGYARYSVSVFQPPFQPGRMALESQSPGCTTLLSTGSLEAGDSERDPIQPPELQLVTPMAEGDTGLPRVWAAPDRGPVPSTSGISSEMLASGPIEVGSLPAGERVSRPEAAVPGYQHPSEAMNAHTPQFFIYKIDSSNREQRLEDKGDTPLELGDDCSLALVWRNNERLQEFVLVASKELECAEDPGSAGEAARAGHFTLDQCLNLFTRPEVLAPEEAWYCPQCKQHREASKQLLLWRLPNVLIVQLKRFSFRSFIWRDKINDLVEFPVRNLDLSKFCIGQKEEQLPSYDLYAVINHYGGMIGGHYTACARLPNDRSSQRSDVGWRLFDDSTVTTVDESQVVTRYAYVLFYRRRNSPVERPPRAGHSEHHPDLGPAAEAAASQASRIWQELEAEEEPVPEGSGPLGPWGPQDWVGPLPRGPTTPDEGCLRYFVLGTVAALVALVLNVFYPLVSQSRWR

Compound | IC50
O=C(N1CCC(O)(Cn2cnc3cc(F)c(F)cc3c2=O)C2(CCCC2)C1)N1CCNC[C@H]1c1ccccc1 (stereo not given in full) | < 0.5 µM
O=C(N1CCC(O)(Cn2cnc3ccc(F)cc3c2=O)C2(CCCC2)C1)N1CCNC[C@H]1c1ccccc1 (stereo not given in full) | < 0.5 µM
C[C@H](CC1CCCCC1)C(=O)N1CCC(O)(Cn2cc(C(=O)N(C)C)ncc2=O)C2(CCCC2)C1 (stereo not given in full) | < 0.5 µM
C[C@H](CC1CCCCC1)C(=O)N1CCC(O)(Cn2cc([S+](C)[O-])c(-c3ccccc3)cc2=O)C2(CCCC2)C1 (stereo not given in full) | < 0.5 µM
O=C(N1CCC(O)(Cn2cnc3c(cnn3Cc3ccccc3)c2=O)C2(CCCC2)C1)N1CCNC[C@H]1c1ccccc1 (stereo not given in full) | < 0.5 µM
O=C(NCc1cccs1)N1CC[C@@](O)(Cn2cnc(-c3ccccc3)cc2=O)C2(CCCC2)C1 | < 0.5 µM
C[C@H](CC1CCCCC1)C(=O)N1CCC(O)(Cn2cc([S+](C)[O-])c(Cl)cc2=O)C2(CCCC2)C1 (stereo not given in full) | < 0.5 µM
C[C@H](CC1CCCCC1)C(=O)N1CCC(O)(Cn2cc(N=S(C)(C)=O)c(-c3ccccc3)cc2=O)C2(CCCC2)C1 (stereo not given in full) | < 0.5 µM
O=C(N1CC[C@@](O)(Cn2cnc(Cl)cc2=O)C2(CCCC2)C1)N1CCOC[C@H]1c1ccccc1 | < 0.5 µM
C[C@H](CC(F)(F)F)C(=O)N1CCC(O)(Cn2cc(N=S(C)(C)=O)c(-c3ccccc3)cc2=O)C2(CCCC2)C1 (stereo not given in full) | < 0.5 µM
CN(C)C(=O)c1cn(CC2(O)CCN(C(=O)N(C)CC3CCCCC3)CC23CCCC3)c(=O)cc1-c1ccccc1 (stereo not given) | < 0.5 µM
CCn1ncc2c(=O)n(CC3(O)CCN(C(=O)[C@H](C)CC4CCCCC4)CC34CCCC4)cnc21 (stereo not given in full) | < 0.5 µM
O=C(NCc1ccccc1)N1CCC(O)(Cn2cnc(-c3ccccc3)cc2=O)C2(CCCC2)C1 (stereo not given) | < 0.5 µM
CC(=O)N1CCN(CC2(O)CCN(C(=O)[C@H](C)CC3CCCCC3)CC23CCCC3)C(=O)C1 (stereo not given in full) | < 0.5 µM
O=C(NCc1ccco1)N1CC[C@@](O)(Cn2cnc(-c3ccccc3)cc2=O)C2(CCCC2)C1 | < 0.5 µM
C[C@H](CC1CCCCC1)C(=O)N1CCC(O)(Cn2cnc3ccc(F)cc3c2=O)C2(CCCC2)C1 (stereo not given in full) | < 0.5 µM
C[S+]([O-])c1cn(CC2(O)CCN(C(=O)N3CCNC[C@H]3c3ccccc3)CC23CCCC3)c(=O)cc1-c1ccccc1 (stereo not given in full) | < 0.5 µM
O=C(N1CC[C@@](O)(Cn2ccc3ncncc3c2=O)C2(CCCC2)C1)N1CCNC[C@H]1c1ccccc1 | < 0.5 µM
CN(C)C(=O)c1cn(CC2(O)CCN(C(=O)NCc3ccccc3)CC23CCCC3)c(=O)cc1-c1ccccc1 (stereo not given) | < 0.5 µM
C[C@H](CC1CCCCC1)C(=O)N1CCC(O)(Cn2cc(C(=O)N3CCNCC3)ncc2=O)C2(CCCC2)C1 (stereo not given in full) | < 0.5 µM
C[C@H](CC1CCCCC1)C(=O)N1CCC(O)(Cn2cnc3cc(F)c(Cl)cc3c2=O)C2(CCCC2)C1 (stereo not given in full) | < 0.5 µM
CSc1ncc2c(=O)n(CC3(O)CCN(C(=O)[C@H](C)CC4CCCCC4)CC34CCCC4)cnc2n1 (stereo not given in full) | < 0.5 µM

Compound | IC50
O=C(NCc1ccccc1)N1CCC(O)(Cn2ccc(-c3ccccc3)cc2=O)C2(CCCC2)C1 (stereo not given) | < 0.5 µM
O=C(N1CCC(O)(Cn2cnc3ccc(F)cc3c2=O)C2(CCCC2)C1)N1CCOC[C@H]1c1ccccc1 (stereo not given in full) | < 0.5 µM
CSc1cn(CC2(O)CCN(C(=O)[C@H](C)CC3CCCCC3)CC23CCCC3)c(=O)cc1Cl (stereo not given in full) | < 0.5 µM
C[C@H](CC1CCCCC1)C(=O)N1CCC(O)(Cn2cnc3cc(F)c(F)cc3c2=O)C2(CCCC2)C1 (stereo not given in full) | < 0.5 µM
C[C@H](CC1CCCCC1)C(=O)N1CCC(O)(Cn2cnc3c(cnn3-c3ccccc3)c2=O)C2(CCCC2)C1 (stereo not given in full) | < 0.5 µM
C[C@H](CC1CCCCC1)C(=O)N1CCC(O)(CN2CCN(c3ccccc3)CC2=O)C2(CCCC2)C1 (stereo not given in full) | < 0.5 µM
C[C@H](CC1CCCCC1)C(=O)N1CCC(O)(Cn2cc(S(C)(=N)=O)c(Cl)cc2=O)C2(CCCC2)C1 (stereo not given in full) | < 0.5 µM
O=C1CN(c2ccccc2)CCN1CC1(O)CCN(C(=O)NCc2ccccc2)CC12CCCC2 (stereo not given) | < 0.5 µM
C[C@H](CC1CCCCC1)C(=O)N1CCC(O)(Cn2cc(S(C)(=N)=O)c(-c3ccccc3)cc2=O)C2(CCCC2)C1 (stereo not given in full) | < 0.5 µM
O=C(N1CCC(O)(Cn2cnc3cc(F)c(F)cc3c2=O)C2(CCCC2)C1)N1CCOC[C@H]1c1ccccc1 (stereo not given in full) | < 0.5 µM
O=C(N1CC[C@@](O)(Cn2cnc(-c3ccccc3)cc2=O)C2(CCCC2)C1)N1CCOC[C@H]1c1ccccc1 | < 0.5 µM
C[C@H](CC1CCCCC1)C(=O)N1CCC(O)(Cn2cc(S(C)(=O)=O)c(-c3ccccc3)cc2=O)C2(CCCC2)C1 (stereo not given in full) | < 0.5 µM
C[C@H](CC1CCCCC1)C(=O)N1CCC(O)(Cn2cc(S(C)(=O)=O)c(Cl)cc2=O)C2(CCCC2)C1 (stereo not given in full) | < 0.5 µM
Cn1ncc2c(=O)n(CC3(O)CCN(C(=O)N4CCNC[C@H]4c4ccccc4)CC34CCCC4)cnc21 (stereo not given in full) | < 0.5 µM
CSc1cn(CC2(O)CCN(C(=O)[C@H](C)CC3CCCCC3)CC23CCCC3)c(=O)cc1-c1ccccc1 (stereo not given in full) | < 0.5 µM
C[C@H](CC1CCCCC1)C(=O)N1CCC(O)(CN2CCN(C(=O)OC(C)(C)C)CC2=O)C2(CCCC2)C1 (stereo not given in full) | < 0.5 µM
C[C@H](CC1CCCCC1)C(=O)N1CCC(O)(Cn2cc(Cl)ncc2=O)C2(CCCC2)C1 (stereo not given in full) | < 0.5 µM
COC(=O)c1cn(CC2(O)CCN(C(=O)[C@H](C)CC3CCCCC3)CC23CCCC3)c(=O)cn1 (stereo not given in full) | < 0.5 µM
CN(C)C(=O)C1CN(C[C@]2(O)CCN(C(=O)[C@H](CO)CC3CCCCC3)CC2(C)C)C(=O)CC1c1ccccc1 (stereo not given in full) | < 0.5 µM
C[C@H](CC1CCCCC1)C(=O)N1CCC(O)(Cn2cnc3ccc(Cl)cc3c2=O)C2(CCCC2)C1 (stereo not given in full) | < 0.5 µM
C[C@H](CC(F)(F)F)C(=O)N1CCC(O)(CN2CCN(c3ccccn3)CC2=O)C2(CCCC2)C1 (stereo not given in full) | < 0.5 µM
O=C(N1CCC(O)(Cn2ccc3ccncc3c2=O)C2(CCCC2)C1)N1CCNC[C@H]1c1ccccc1 (stereo not given in full) | < 0.5 µM

Compound | IC50
COc1ccc2c(=O)n(CC3(O)CCN(C(=O)[C@H](C)CC4CCCCC4)CC34CCCC4)ccc2c1 (stereo not given in full) | ≤ 5 µM
O=C(N1CC[C@@](O)(Cn2cnc(-c3ccccc3)cc2=O)C2(CCCC2)C1)N1CCNC[C@@H]1c1ccccc1 | < 0.5 µM
CSc1ncc2c(=O)n(C[C@]3(O)CCN(C(=O)N4CCNC[C@H]4c4ccccc4)CC34CCCC4)ccc2n1 | < 0.5 µM
CN(C)C(=O)c1cn(CC2(O)CCN(C(=O)N3CCC(C(F)(F)F)C3)CC23CCCC3)c(=O)cc1-c1ccccc1 (stereo not given) | < 0.5 µM
CSc1ncc2c(=O)n(CC3(O)CCN(C(=O)[C@H](C)CC4CCCCC4)CC34CCCC4)n(C)c2n1 (stereo not given in full) | < 0.5 µM
CSc1cn(CC2(O)CCN(C(=O)N3CCNC[C@H]3c3ccccc3)CC23CCCC3)c(=O)cc1-c1ccccc1 (stereo not given in full) | < 0.5 µM
CS(=O)(=O)c1cn(CC2(O)CCN(C(=O)N3CCNC[C@H]3c3ccccc3)CC23CCCC3)c(=O)cc1-c1ccccc1 (stereo not given in full) | < 0.5 µM
C[C@H](CC1CCCCC1)C(=O)N1CCC(O)(Cn2cc(Br)ncc2=O)C2(CCCC2)C1 (stereo not given in full) | < 0.5 µM
O=C(N1CC[C@@](O)(Cn2cnc(-c3ccccc3)cc2=O)C2(CCCC2)C1)N1CCC[C@H]1c1ccccc1 | < 0.5 µM
C[C@H](CC1CCCCC1)C(=O)N1CCC(O)(CN2CCOCC2=O)C2(CCCC2)C1 (stereo not given in full) | < 0.5 µM
Cc1cn(CC2(O)CCN(C(=O)N3CCNC[C@H]3c3ccccc3)CC23CCCC3)c(=O)cn1 (stereo not given in full) | < 0.5 µM
CSc1ncc2c(=O)n(CC3(O)CCN(C(=O)[C@H](C)CC(F)(F)F)CC34CCCC4)ccc2n1 (stereo not given in full) | < 0.5 µM
CS(=N)(=O)c1cn(CC2(O)CCN(C(=O)N3CCOC[C@H]3c3ccccc3)CC23CCCC3)c(=O)cc1-c1ccccc1 (stereo not given in full) | < 0.5 µM
CS(=N)(=O)c1cn(CC2(O)CCN(C(=O)N3CCNC[C@H]3c3ccccc3)CC23CCCC3)c(=O)cc1-c1ccccc1 (stereo not given in full) | < 0.5 µM
CSc1ncc2c(=O)n(CC3(O)CCN(C(=O)[C@H](C)CC4CCCCC4)CC34CCCC4)ccc2n1 (stereo not given in full) | < 0.5 µM
O=C(NCc1cccc(F)c1)N1CC[C@@](O)(Cn2cnc(-c3ccccc3)cc2=O)C2(CCCC2)C1 | < 0.5 µM
C[C@H](CC(F)(F)F)C(=O)N1CCC(O)(CN2CCN(c3ccccc3)CC2=O)C2(CCCC2)C1 (stereo not given in full) | < 0.5 µM
O=C(N1CCC(O)(Cn2cnc3c(cnn3-c3ccccc3)c2=O)C2(CCCC2)C1)N1CCNC[C@H]1c1ccccc1 (stereo not given in full) | < 0.5 µM
C[C@H](CC1CCCCC1)C(=O)N1CCC(O)(Cn2ccc3ccncc3c2=O)C2(CCCC2)C1 (stereo not given in full) | < 0.5 µM
O=C(N1CCC(O)(Cn2cnc3c(cnn3C3CC3)c2=O)C2(CCCC2)C1)N1CCNC[C@H]1c1ccccc1 (stereo not given in full) | < 0.5 µM
CN(C)C(=O)c1cn(CC2(O)CCN(C(=O)N(C)Cc3ccccc3)CC23CCCC3)c(=O)cc1-c1ccccc1 (stereo not given) | < 0.5 µM
